Laboratory results as given in ChEMBL document CHEMBL5724696, “Autophagy assay results for EUbOPEN Chemogenomics Library” (2024).

Legend:
Format in all cases: functional, Homo sapiens
[1] = system: U2OS; assay: (§1) Here: values are normalized to the negative (DMSO; defined as 0% autophagy induction) and positive (250nM Torin1; mTOR inhibitor; defined as maximal inducer of autophagy = 100%) control compounds and represented as % of autophagy induction. […] The impact of autophagy induction on cells is complex and depends on the affected target. As such, the magnitude of a phenotype may not be equally mirrored in the %-value of autophagy induction and vice versa. The dynamics of the induction may indicate the mode of activation: e.g. activation via phosphorylation or a signaling cascade may occur fast, while activation via transcription factors may take considerably longer. […] Of note, treatment concentrations may be sub-optimal for specific compounds, leading to false negative annotations.; conditions: Culturing Media DMEM, 1 % Penicillin/Streptomycin, 10% Fetal bovin serum Add-On: No, Screening Media Control DMEM, Screening Media Samples DMEM
[2] = system: U2OS; assay: as §1; conditions: Culturing Media DMEM, 1 % Penicillin/Streptomycin, 10% Fetal bovin serum Add-On: No, Screening Media Control DMEM, Screening Media Samples DMEM; remark: listed apart in the source
[3] = system: TERT-RPE1; assay: as §1; conditions: Culturing Media DMEM/F12 (1:1), 1 % Penicillin/Streptomycin, 10% Fetal bovin serum Add-On: No, Screening Media Control DMEM/F12 (1:1), Screening Media Samples DMEM/F12 (1:1)
[4] = Compound Concentration 0.5 uM, Timepoint 12 hours
[5] = Compound Concentration 0.5 uM, Timepoint 24 hours
[6] = Compound Concentration 0.5 uM, Timepoint 36 hours
[7] = Compound Concentration 0.5 uM, Timepoint 60 hours
[8] = Compound Concentration 2 uM, Timepoint 12 hours
[9] = Compound Concentration 2 uM, Timepoint 24 hours
[10] = Compound Concentration 2 uM, Timepoint 36 hours
[11] = Compound Concentration 2 uM, Timepoint 60 hours
[12] = Compound Concentration 10 uM, Timepoint 12 hours
[13] = Compound Concentration 10 uM, Timepoint 24 hours
[14] = Compound Concentration 10 uM, Timepoint 36 hours
[15] = Compound Concentration 10 uM, Timepoint 60 hours

| SMILES | autophagy induction [1, 4] | autophagy induction [1, 5] | autophagy induction [1, 6] | autophagy induction [1, 7] | autophagy induction [1, 8] | autophagy induction [1, 9] | autophagy induction [1, 10] | autophagy induction [1, 11] | autophagy induction [1, 12] | autophagy induction [1, 13] | autophagy induction [1, 14] | autophagy induction [1, 15] | autophagy induction [2, 4] | autophagy induction [2, 5] | autophagy induction [2, 6] | autophagy induction [2, 7] | autophagy induction [2, 8] | autophagy induction [2, 9] | autophagy induction [2, 10] | autophagy induction [2, 11] | further results |
| --- | --- | --- | --- | --- | --- | --- | --- | --- | --- | --- | --- | --- | --- | --- | --- | --- | --- | --- | --- | --- | --- |
| CN(C)S(=O)(=O)c1ccc(NC(=S)N2CCC(C(O)(c3ccccc3)c3ccccc3)CC2)cc1 | 4.873% | 8.285% | -1.545% | -6.741% | -9.723% | -10.0932% | -2.641% | -5.443% | -2.358% | -3.276% | -0.5558% | -1.95% | -3.164% | 1.478% | 0.3125% | 1.161% | -4.133% | -2.924% | -1.588% | -1.351% | autophagy induction [2, 12]: -4.693%; autophagy induction [2, 13]: -0.2636%; autophagy induction [2, 14]: 0.0362%; autophagy induction [2, 15]: -2.232%; autophagy induction [3, 4]: -8.089%; autophagy induction [3, 5]: -8.809%; autophagy induction [3, 6]: -7.846%; autophagy induction [3, 7]: -8.279%; autophagy induction [3, 8]: -6.98%; autophagy induction [3, 9]: -8.186%; autophagy induction [3, 10]: -8.002%; autophagy induction [3, 11]: -9.897%; autophagy induction [3, 12]: -4.6942%; autophagy induction [3, 13]: -5.029%; autophagy induction [3, 14]: -1.466%; autophagy induction [3, 15]: -2.059% |
| CC(C)NC(=O)c1ccc(C#Cc2ccncc2)cn1 | 0.5322% | 0.2252% | -0.5555% | 0.1744% | 1.689% | 1.76% | 0.3174% | -4.895% | -23.095% | -7.509% | -0.1897% | 10.5553% | -9.113% | -5.012% | -3.818% | -1.861% | -10.7877% | -3.358% | -2.622% | -1.746% | autophagy induction [2, 12]: -0.7026%; autophagy induction [2, 13]: -0.9948%; autophagy induction [2, 14]: -1.134%; autophagy induction [2, 15]: -0.8185%; autophagy induction [3, 4]: -8.654%; autophagy induction [3, 5]: -9.257%; autophagy induction [3, 6]: -14.0532%; autophagy induction [3, 7]: -16.4507%; autophagy induction [3, 8]: -4.036%; autophagy induction [3, 9]: -5.1239%; autophagy induction [3, 10]: -6.815%; autophagy induction [3, 11]: -8.286%; autophagy induction [3, 12]: 1.565%; autophagy induction [3, 13]: 2.778%; autophagy induction [3, 14]: 9.008%; autophagy induction [3, 15]: 16.9694% |
| CCCCN(CCCC)C(=O)CN1C[C@@H](c2ccc3c(c2)OCO3)[C@H](C(=O)O)[C@H]1c1ccc(OC)cc1 | -15.0632% | -6.645% | -7.125% | -16.2807% | -9.31% | -9.369% | -11.2096% | -4.989% | 9.199% | 8.705% | 6.119% | 4.931% | -1.434% | -1.039% | -0.6288% | -0.1138% | -9.274% | -4.861% | -2.29% | -1.949% | autophagy induction [2, 12]: 6.695%; autophagy induction [2, 13]: 2.81%; autophagy induction [2, 14]: 1.829%; autophagy induction [2, 15]: -0.9275%; autophagy induction [3, 4]: -5.689%; autophagy induction [3, 5]: -7.876%; autophagy induction [3, 6]: -10.2076%; autophagy induction [3, 7]: -16.9579%; autophagy induction [3, 8]: -2.05%; autophagy induction [3, 9]: -6.33%; autophagy induction [3, 10]: -9.375%; autophagy induction [3, 11]: -15.3533%; autophagy induction [3, 12]: 0.4134%; autophagy induction [3, 13]: 0.2558%; autophagy induction [3, 14]: -0.8322%; autophagy induction [3, 15]: -6.302% |
| C/C(=N\NC(=O)[C@@H]1C(=O)NC[C@H]1c1ccccc1)c1cccc(Br)c1 | 9.666% | 0.07709% | 4.021% | -3.426% | -4.579% | -6.454% | -2.749% | -11.0743% | -8.587% | 1.184% | -3.458% | -5.559% | -3.442% | 0.5164% | 1.385% | -0.9425% | -6.368% | -5.034% | -3.37% | -2.754% | autophagy induction [2, 12]: -1.379%; autophagy induction [2, 13]: -1.755%; autophagy induction [2, 14]: -0.957%; autophagy induction [2, 15]: -1.418%; autophagy induction [3, 4]: 3.657%; autophagy induction [3, 5]: -1.179%; autophagy induction [3, 6]: -5.656%; autophagy induction [3, 7]: -7.294%; autophagy induction [3, 8]: -6.467%; autophagy induction [3, 9]: -9.581%; autophagy induction [3, 10]: -11.1295%; autophagy induction [3, 11]: -14.064%; autophagy induction [3, 12]: -5.576%; autophagy induction [3, 13]: -6.043%; autophagy induction [3, 14]: -7.363%; autophagy induction [3, 15]: -9.435% |
